What was measured:
E-selectin expression = test: Cell-surface enzyme immunoassay of TNF-α-induced E-selectin expression in endothelial cells; format: cell-based, human; details: 100 nM, TNF-α 10 ng/ml
Description: (§1) FIG. 2 is a set of bar graphs of cell-surface enzyme immunoassays. […] The difference between treatment with TNF-α alone and in the presence of [11,12]-EET were statistically significant (*p<0.05, **p<0.01), OD, optical density. […] After stimulation with TNF-α (10 ng/ml) in the presence or absence of EET, promoter activity was determined relative to basal activity. *p<0.01 vs. TNF-α alone.
(§2) To determine the biological effects of EETs, we treated tumor necrosis factor alpha (TNF-α)-stimulated human endothelial cells with physiological relevant concentrations (1-100 nM) of [5,6]-EET, [8,9]-EET, [11,12]-EET, [14,15]-EET, [11,12]-DHET.

IκB kinase (IKK) = test: IKK activity assay with GST-IκB-α substrate, TNF-α-stimulated endothelial cells; format: biochemical, human; details: 100 nM, TNF-α 10 ng/ml, 15 min
Description: (§3) A set of gel shift assays was performed. […] In some assays, [11,12]-EET (100 nM) was also added directly to the IKK assay (in vitro). As a control for nonspecific phosphorylation, the assay was performed without the addition of immunoprecipitated IKK (no enzyme) or in the presence of a IκB-α mutant (ΔSer 32, Ser 36→Thr) as substrate. The assay was performed three times with similar results.
(§4) Specificity of IKB was determined by the complete absence of phosphorylation when the mutated IκB-α substrate, GST-1κB-α (Δ32,36: S→T) which cannot be phosphorylated at serine residues 32 and 36, was substituted for wild-type GST-IκB-α.

RelA = test: Cellular localization of RelA in TNF-α-stimulated endothelial cells; format: cell-based; details: co-treatment with TNF-α
Text: (§5) Co-treatment with [11,12]-EET prevented the nuclear accumulation of RelA. Since the nuclear translocation of RelA requires the degradation of its endogenous cytoplasmic inhibitor, inhibitor kappa B (IκB-α), we followed the fate of IκB-α after TNF-α stimulation in the presence or absence of [11,12]-EET. Stimulation of human endothelial cells with TNF-α caused a rapid and almost complete disappearance of IκB-α which was prevented by co-treatment with [11,12]-EET, but not [14,15]-EET.

VCAM-1 expression [1] = test: Cell-surface enzyme immunoassay of cytokine-induced VCAM-1 expression in endothelial cells; format: cell-based, human; details: human endothelial cells, 1-100 nM
Description: as §1, §2

VCAM-1 expression [2] = test: as above; format: cell-based, human; details: 100 nM, 24 hours
IκB-α = test: Fate of IκB-α after TNF-α stimulation of human endothelial cells; format: cell-based; details: TNF-α 10 ng/ml, 15 min; EET 100 nM
Text: as §5, §3, §4

ICAM-1 expression = test: Cell-surface enzyme immunoassay of TNF-α-induced ICAM-1 expression in endothelial cells; format: cell-based, human; details: 100 nM, TNF-α 10 ng/ml
Description: as §1, §2

F2-isoprostanes = test: Cellular F2-isoprostanes in BAECs exposed to hypoxia-reoxygenation (GC/MS); format: cell-based, bovine; details: CYP2J2-transfected vs GFP-transfected BAECs
Description: F2-Isoprostane levels in BAECs were measured using a modification of the procedure described by Morrow & Roberts, 300 Methods Enzymol. 3-12 (1999). Briefly, cells were collected by treatment with trypsin and stored at −80° C. until analyzed. BHT was added to the freshly-thawed samples to inhibit oxidation during sample processing. The samples (4×10^7 cells) were incubated with KOH for 30 minutes at 40° C. The samples were then acidified to pH 3.0, 3 ng of a d4 8-iso-PGF2α internal standard was added, and the precipitated protein was removed by centrifugation at 375×g. The F2-isoprostanes in the supernatant were concentrated by passage over C18 Sep-pak (Millipore, Marlborough, Mass.), followed by Silica Sep-pak (Millipore) columns. The eluant, containing a mixture of the d4 internal standard and endogenous cellular F2-isoprostanes, was dried under nitrogen and derivatized to the pentaflorobenzyl (PFB) ester using […] according to the protocol of Schweer et al., 32 J. Mass Spectrom. 1362-1370 (1997). The PFB-derivatized isoprostanes were purified by TLC, and the bands were collected based on comparison of their Rf values to those of authentic standards. […] Quantitation was done by GC/NCI/MS on a 25m Supelco DB 5 column (Supelco, Bellefonte, Pa.). […]

endogenous EET levels = test: Endogenous EET levels in BAECs (gas chromatography/mass spectrometry); format: cell-based, bovine; details: CYP2J2 transfection vs control BAECs
Text: In addition to the cyclooxygenase and lipoxygenase pathways, the P450 monooxygenase pathway is an important member of the cardiac arachidonic acid metabolic cascade (Wu et al., 272 J. Biol. Chem 12551 (1997)).

Row | Compound | inhibition of E-selectin expression (E-selectin expression) | inhibition of TNF-α-induced IKK activity (IκB kinase (IKK)) | effect on TNF-α-induced nuclear accumulation of RelA (RelA) | inhibition of TNF-α-induced VCAM-1 expression (rank/words) (VCAM-1 expression [1]; TNF-α) | maximal inhibition of TNF-α-induced VCAM-1 expression (VCAM-1 expression [1]; TNF-α 10 ng/ml) | inhibition of IL-1α-induced VCAM-1 expression (VCAM-1 expression [2]; IL-1α) | inhibition of LPS-induced VCAM-1 expression (VCAM-1 expression [2]; LPS 10 ng/ml) | effect on TNF-α-induced disappearance/degradation of IκB-α (IκB-α) | inhibition of ICAM-1 expression (ICAM-1 expression) | hypoxia-reoxygenation-induced increase in cellular F2-isoprostanes (F2-isoprostanes) | increase of endogenous EET levels (endogenous EET levels)
1 | CCCCC/C=C\C[C@H]1O[C@H]1C/C=C\C/C=C\CCCC(=O)O [[11,12]-EET] | inhibited | > 90% | prevented | most effective | 75% | inhibited | inhibited | prevented | inhibited |  | 
2 | CYP2J2: CYP2J2 cDNA (1.9 kb) subcloned into plasmid pcDNA3.1, transfected into endothelial cells |  |  |  |  |  |  |  |  |  | significantly attenuated | approximately 30%

From patent US6916843B1, “Anti-inflammatory actions of cytochrome P450 expoxygenase-derived eicosanoids” (The United States of America as represented by the …, priority 1999, dated 2005)
